Measurements reported in ChEMBL document CHEMBL1123766, “2-Amino- and 2-guanidino-1,2,3,4-tetrahydro-1,4-epoxynaphthalenes as conformationally defined analogues of alpha-adrenergic agents” (J Med Chem, 1987).

Tests used:
[1] = molecular target: T1, Adrenergic receptor alpha-2 (Rattus norvegicus) (UniProt P22086+P19328+P22909); test: Evaluated for alpha-2 adrenergic receptor activity in the field stimulated rat vas deferens preparation.* Stimulatory effects blocked by prazosin (78 nM).; assay type: tissue-based
[2] = molecular target: T1, Adrenergic receptor alpha-2 (Rattus norvegicus); test: Approximate efficacy based on maximal effect produced by […] was determined against the alpha-2 adrenergic receptor; assay type: protein assay
[3] = molecular target: T1, Adrenergic receptor alpha-2 (Rattus norvegicus); test: Evaluated for alpha-2 adrenergic receptor activity in the field stimulated rat vas deferens preparation; assay type: tissue-based
[4] = molecular target: T1, Adrenergic receptor alpha-2 (Rattus norvegicus); test: Evaluated for alpha-2 adrenergic receptor activity in the field stimulated rat vas deferens preparation.* Confirmed by pretreatment with reserpine (3 mg/kg) 16 hr prior to sacrifice. Stimulatory effects blocked by prazosin (78 nM). Value estimated in the presen
[5] = molecular target: T1, Adrenergic receptor alpha-2 (Rattus norvegicus); test: Evaluated for alpha-2 adrenergic receptor activity in the field stimulated rat vas deferens preparation.*-confirmed by pretreatment with reserpine (3 mg/kg) 16 hr prior to sacrifice. Stimulatory effects blocked by prazosin (78 nM).
[6] = molecular target: T1, Adrenergic receptor alpha-2 (Rattus norvegicus); test: Evaluated for alpha-2 adrenergic receptor activity in the field stimulated rat vas deferens preparation.; assay type: tissue-based

SMILES	Efficacy [2]	pD2 [3]	other results
COc1ccc(OC)c2c1C1CC(N=C(N)N)C2O1 (centres undefined)	0.7	–	pD2 [1]: 4.75
COc1ccc(OC)c(C(O)C(C)N)c1 (centres undefined)	1	6.48	–
N[C@H]1CC2OC1c1ccccc12 (some centres undefined)	–	–	pD2 [4]: 4.9
N[C@@H]1CC2OC1c1ccccc12 (some centres undefined)	–	< 3	–
COc1ccc(OC)c2c1C1C[C@H](N)C2O1 (some centres undefined)	0.9	–	pD2 [5]: 5.08
COc1ccc(OC)c2c1C1C[C@@H](N)C2O1 (some centres undefined)	–	–	pD2 [6]: 3.49
